Assay results taken from patent US10047096B2, “Substituted pyridobenzodiazepinone-derivatives and use thereof” (Bayer Pharma Aktiengesellschaft, priority 2014, dated 2018).
Structures can show the parent of a compound that is named as a salt.

Molecular target: human PDGFRβ (Homo sapiens (Human), UniProt P09619)
Experiment: PDGFRβ kinase assay (PDGFRβ-HTRF)
Type: biochemical
Settings: not given
Summary of the method: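 GST-fused human PDGFRβ fragment (R561-L1106) from Sf9 cells was preincubated 15 min with compound in 50 mM HEPES pH 7.5, 10 mM MgCl2, 2.5 mM DTT, 0.01% Triton X-100; substrate was biotinylated poly-Glu,Tyr (4:1).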

human PDGFRβ, sequence (P09619 561-1106): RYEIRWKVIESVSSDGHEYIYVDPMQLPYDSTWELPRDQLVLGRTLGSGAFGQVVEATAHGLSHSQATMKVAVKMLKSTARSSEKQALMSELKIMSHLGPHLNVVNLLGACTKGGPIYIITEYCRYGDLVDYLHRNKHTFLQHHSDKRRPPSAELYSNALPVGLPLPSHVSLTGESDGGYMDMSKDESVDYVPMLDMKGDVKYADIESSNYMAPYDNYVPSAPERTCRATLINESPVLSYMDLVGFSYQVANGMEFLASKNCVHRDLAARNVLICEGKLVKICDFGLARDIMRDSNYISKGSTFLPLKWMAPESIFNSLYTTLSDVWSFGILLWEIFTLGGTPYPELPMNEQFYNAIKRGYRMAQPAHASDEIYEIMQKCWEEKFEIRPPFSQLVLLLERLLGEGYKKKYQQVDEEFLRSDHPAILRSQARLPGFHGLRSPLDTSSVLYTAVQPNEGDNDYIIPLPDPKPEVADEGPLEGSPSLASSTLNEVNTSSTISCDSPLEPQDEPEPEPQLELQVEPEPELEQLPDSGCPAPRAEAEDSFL

Row | SMILES | IC50 [nM]
1 | Cc1ccc(O)cc1Nc1ccnc2c1C(=O)Nc1cc(CN3CCOCC3)ccc1N2 [Example 41, 4-[(5-Hydroxy-2-methylphenyl)amino]-8-(morpholin-4-ylmethyl)-6,11-dihydro-5H-pyrido[2,3-b][1,5]benzodiazepin-5-one formic acid salt] | 3.72

Same assay, conditions: 10 μM ATP; some mean values from multiple determinations

Row | SMILES | IC50 [nM]
2 | COC1CCCN(Cc2ccc3c(c2)NC(=O)c2c(Nc4cc(O)c(C)cc4F)ccnc2N3)C1 (racemic) [Example 66, rac-4-[(2-Fluoro-5-hydroxy-4-methylphenyl)amino]-8-[(3-methoxypiperidin-1-yl)methyl]-6,11-dihydro-5H-pyrido[2,3-b][1,5]benzodiazepin-5-one] | 3.75
3 | Cc1ccc(O)cc1Nc1ccnc2c1C(=O)Nc1cc(CNc3ccn(C)n3)ccc1N2 [Example 105] | 14.6
4 | COc1ccc(NCc2ccc3c(c2)NC(=O)c2c(Nc4cc(O)ccc4C)ccnc2N3)cc1F [Example 107] | 18.4
5 | Cc1ccc(O)cc1Nc1ccnc2c1C(=O)Nc1cc(CNCCC(F)(F)F)ccc1N2 [Example 115] | 3.93
6 | Cc1ccc(O)cc1Nc1ccnc2c1C(=O)Nc1cc(CNCC(C)C)ccc1N2 [Example 152] | 4.42
7 | Cc1ccc(O)cc1Nc1ccnc2c1C(=O)Nc1cc(CNC(C)C(C)C)ccc1N2 (stereo not drawn) [Example 157] | 3.4
8 | Cc1ccc(O)cc1Nc1ccnc2c1C(=O)Nc1cc(CNCCN3CCC(C)CC3)ccc1N2 [Example 110] | 3.29
9 | Cc1ccc(O)cc1Nc1ccnc2c1C(=O)Nc1cc(CNc3ccccc3F)ccc1N2 [Example 147] | 52.9
10 | Cc1ccc(O)cc1Nc1ccnc2c1C(=O)Nc1cc(CNCc3cccc(F)c3F)ccc1N2 [Example 94] | 3.52
11 | Cc1ccc(O)cc1Nc1ccnc2c1C(=O)Nc1cc(CN3CCN(CCO)CC3)ccc1N2 [Example 44, 8-{[4-(2-Hydroxyethyl)piperazin-1-yl]methyl}-4-[(5-hydroxy-2-methylphenyl)amino]-6,11-dihydro-5H-pyrido[2,3-b][1,5]benzodiazepin-5-one] | 19.8
12 | Cc1ccc(O)cc1Nc1ccnc2c1C(=O)Nc1cc(CNC3CCC3)ccc1N2 [Example 20, 8-[(Cyclobutylamino)methyl]-4-[(5-hydroxy-2-methylphenyl)amino]-6,11-dihydro-5H-pyrido[2,3-b][1,5]benzodiazepin-5-one] | 2.89
13 | CCCCNCc1ccc2c(c1)NC(=O)c1c(Nc3cc(O)ccc3C)ccnc1N2 [Example 23, 8-[(Butylamino)methyl]-4-[(5-hydroxy-2-methylphenyl)amino]-6,11-dihydro-5H-pyrido[2,3-b][1,5]benzodiazepin-5-one] | 2.98
14 | Cc1cc(F)c(Nc2ccnc3c2C(=O)Nc2cc(CN(C)C)ccc2N3)cc1O [Example 33, 8-[(Dimethylamino)methyl]-4-[(2-fluoro-5-hydroxy-4-methylphenyl)amino]-6,11-dihydro-5H-pyrido[2,3-b][1,5]benzodiazepin-5-one] | 4.3
15 | N#Cc1ccc2c(c1)NC(=O)c1c(Nc3cc(O)c(Cl)cc3F)ccnc1N2 [Example 37, 4-[(4-chloro-2-fluoro-5-hydroxyphenyl)amino]-5-oxo-6,11-dihydro-5H-pyrido[2,3-b][1,5]benzodiazepine-8-carbonitrile] | 4.6
16 | CCNCc1ccc2c(c1)NC(=O)c1c(Nc3cc(O)ccc3C)ccnc1N2 [Example 25, 8-[(Ethylamino)methyl]-4-[(5-hydroxy-2-methylphenyl)amino]-6,11-dihydro-5H-pyrido[2,3-b][1,5]benzodiazepin-5-one] | 3.25
17 | Cc1cc(F)c(Nc2ccnc3c2C(=O)Nc2cc(CNC[C@@H]4CCN(C(=O)OC(C)(C)C)C[C@H]4O)ccc2N3)cc1O [Example 176, tert-Butyl (3S,4S)-4-{[({4-[(2-fluoro-5-hydroxy-4-methylphenyl)amino]-5-oxo-6,11-dihydro-5H-pyrido[2,3-b][1,5]benzodiazepin-8-yl}methyl)amino]methyl}-3-hydroxypiperidine-1-carboxylate] | 3.45
18 | Cc1ccc(O)cc1Nc1ccnc2c1C(=O)Nc1cc(CNCCN3CCN(C)CC3)ccc1N2 [Example 109] | 3.55
19 | Cc1cc(F)c(Nc2ccnc3c2C(=O)Nc2cc(C(=O)N4CCC(O)CC4)ccc2N3)cc1O [Example 178, 4-[(2-Fluoro-5-hydroxy-4-methylphenyl)amino]-8-[(4-hydroxypiperidin-1-yl)carbonyl]-6,11-dihydro-5H-pyrido[2,3-b][1,5]benzodiazepin-5-one] | 14.8

The next lines start with the values.

Row | IC50 [nM] | SMILES
20 | 2.01 | Cc1cc(F)c(Nc2ccnc3c2C(=O)Nc2cc(CNC4CC(F)(F)C4)ccc2N3)cc1O [Example 189, 8-{[(3,3-Difluorocyclobutyl)amino]methyl}-4-[(2-fluoro-5-hydroxy-4-methylphenyl)amino]-6,11-dihydro-5H-pyrido[2,3-b][1,5]benzodiazepin-5-one]
21 | 1.62 | Cc1cc(F)c(Nc2ccnc3c2C(=O)Nc2cc(CN[C@@H](CO)Cc4cnc[nH]4)ccc2N3)cc1O [Example 184, 4-[(2-Fluoro-5-hydroxy-4-methylphenyl)amino]-8-({[(2R)-1-hydroxy-3-(1H-imidazol-5-yl)propan-2-yl]amino}methyl)-6,11-dihydro-5H-pyrido[2,3-b][1,5]benzodiazepin-5-one]
22 | 1.56 | Cc1cc(F)c(Nc2ccnc3c2C(=O)Nc2cc(CN[C@H]4C[C@H](C(=O)O)C4)ccc2N3)cc1O [Example 195, trans-3-[({4-[(2-Fluoro-5-hydroxy-4-methylphenyl)amino]-5-oxo-6,11-dihydro-5H-pyrido[2,3-b][1,5]benzodiazepin-8-yl}methyl)amino]cyclobutanecarboxylic acid]
23 | 1.52 | Cc1ccc(O)cc1Nc1ccnc2c1C(=O)Nc1cc(CNCC(O)CO)ccc1N2 (stereo not drawn) [Example 148]
24 | 1.66 | Cc1ccc(O)cc1Nc1ccnc2c1C(=O)Nc1cc(CNC(C)C3CC=CCC3)ccc1N2 (stereo not drawn) [Example 100]
25 | 1.52 | Cc1cc(F)c(Nc2ccnc3c2C(=O)Nc2cc(CN4CCN(C)CC4)ccc2N3)cc1O [Example 46, 4-[(2-Fluoro-5-hydroxy-4-methylphenyl)amino]-8-[(4-methylpiperazin-1-yl)methyl]-6,11-dihydro-5H-pyrido[2,3-b][1,5]benzodiazepin-5-one]
26 | 2.43 | Cc1cc(F)c(Nc2ccnc3c2C(=O)Nc2cc(C(=O)N[C@H]4CC[C@H](O)CC4)ccc2N3)cc1O [Example 180, 4-[(2-Fluoro-5-hydroxy-4-methylphenyl)amino]-N-(trans-4-hydroxycyclohexyl)-5-oxo-6,11-dihydro-5H-pyrido[2,3-b][1,5]benzodiazepine-8-carboxamide]
27 | 2.31 | Cc1ccc(O)cc1Nc1ccnc2c1C(=O)Nc1cc(CNCC3CNC(=O)C3)ccc1N2 (stereo not drawn) [Example 130]
28 | 1.74 | Cc1ccc(O)cc1Nc1ccnc2c1C(=O)Nc1cc(CNCCCOC(C)C)ccc1N2 [Example 149]
29 | 1.86 | CCN(CC)Cc1ccc2c(c1)NC(=O)c1c(Nc3cc(O)ccc3C)ccnc1N2 [Example 39, 8-[(Diethylamino)methyl]-4-[(5-hydroxy-2-methylphenyl)amino]-6,11-dihydro-5H-pyrido[2,3-b][1,5]benzodiazepin-5-one]
30 | 1.2 | Cc1cc(F)c(Nc2ccnc3c2C(=O)Nc2cc(CN4CCC5(O)CCCCC5C4)ccc2N3)cc1O (stereo not drawn) [Example 183, 4-[(2-Fluoro-5-hydroxy-4-methylphenyl)amino]-8-[(4a-hydroxyoctahydroisoquinolin-2(1H)-yl)methyl]-6,11-dihydro-5H-pyrido[2,3-b][1,5]benzodiazepin-5-one]
31 | 1.98 | Cc1cc(F)c(Nc2ccnc3c2C(=O)Nc2cc(CN4CCCC(O)(c5ccccc5)C4)ccc2N3)cc1O (racemic) [Example 73, rac-4-[(2-Fluoro-5-hydroxy-4-methylphenyl)amino]-8-[(3-hydroxy-3-phenylpiperidin-1-yl)methyl]-6,11-dihydro-5H-pyrido[2,3-b][1,5]benzodiazepin-5-one]
32 | 1.64 | Cc1ccc(O)cc1Nc1ccnc2c1C(=O)Nc1cc(CNCC3CCN(C(C)C)C3)ccc1N2 (stereo not drawn) [Example 140]
33 | 0.475 | Cc1cc(F)c(Nc2ccnc3c2C(=O)Nc2cc(CNCCc4ccncc4)ccc2N3)cc1O [Example 74, 4-[(2-Fluoro-5-hydroxy-4-methylphenyl)amino]-8-({[2-(pyridin-4-yl)ethyl]amino}methyl)-6,11-dihydro-5H-pyrido[2,3-b][1,5]benzodiazepin-5-one]
34 | 1.71 | CCN(Cc1ccc2c(c1)NC(=O)c1c(Nc3cc(O)c(C)cc3F)ccnc1N2)CC(C)O (racemic) [Example 204, rac-8-{[Ethyl(2-hydroxypropyl)amino]methyl}-4-[(2-fluoro-5-hydroxy-4-methylphenyl)amino]-6,11-dihydro-5H-pyrido[2,3-b][1,5]benzodiazepin-5-one]
35 | 1.49 | Cc1ccc(O)cc1Nc1ccnc2c1C(=O)Nc1cc(CNCc3cccc(F)c3)ccc1N2 [Example 120]
36 | 1.92 | Cc1cc(F)c(Nc2ccnc3c2C(=O)Nc2cc(CN4CCN5C(=O)C(C)NC(=O)C5C4)ccc2N3)cc1O (racemic) [Example 194, rac-8-({4-[(2-Fluoro-5-hydroxy-4-methylphenyl)amino]-5-oxo-6,11-dihydro-5H-pyrido[2,3-b][1,5]benzodiazepin-8-yl}methyl)-3-methyltetrahydro-2H-pyrazino[1,2-a]pyrazine-1,4(3H,6H)-dione]
37 | 1.12 | Cc1cc(F)c(Nc2ccnc3c2C(=O)Nc2cc(CN4CC[C@@H](N)C4)ccc2N3)cc1O [Example 216, 8-{[(3R)-3-Aminopyrrolidin-1-yl]methyl}-4-[(2-fluoro-5-hydroxy-4-methylphenyl)amino]-6,11-dihydro-5H-pyrido[2,3-b][1,5]benzodiazepin-5-one]
38 | 2.24 | Cc1ccc(O)cc1Nc1ccnc2c1C(=O)Nc1cc(CNCCF)ccc1N2 [Example 126]

Same assay, conditions: 10 μM ATP; some mean values from multiple determinations; acetic acid salt

Row | IC50 [nM] | SMILES
39 | 5.06 | Cc1cc(F)c(Nc2ccnc3c2C(=O)Nc2cc(CNC4CCCC4)ccc2N3)cc1O [Example 34, 8-[(Cyclopentylamino)methyl]-4-[(2-fluoro-5-hydroxy-4-methylphenyl)amino]-6,11-dihydro-5H-pyrido[2,3-b][1,5]benzodiazepin-5-one acetic acid salt]
